Source: paper PMC12347832, “Multi-Component Synthesis of New Fluorinated-Pyrrolo[3,4-b]pyridin-5-ones Containing the 4-Amino-7-chloroquinoline Moiety and In Vitro–In Silico Studies Against Human SARS-CoV-2” (International Journal of Molecular Sciences, 2025)
Where two headings read alike, the source gives them in different places.

Columns and labels:
[1] = Cell viability assay (crystal violet); settings: African green monkey
[2] = test system: SARS-CoV-2; test: Plaque reduction / time-of-addition assay; format: cell-based; settings: for IC50: Vero E6, MOI 0.1, plaque assay
[3] = test system: SARS-CoV; settings: cited from earlier work
[4] = Severe acute respiratory syndrome coronavirus 2, Vero C1008, compound added at the time of infection (0 h), read-out: IC50 (µM) 0 h
[5] = Severe acute respiratory syndrome coronavirus 2, Vero C1008, read-out: IC50 (µM) 1 h, compound added 1 h postinfection

Compound | viability at 48 h, 10 µM [1] [%] | IC50 [2, 4] [µM] | IC50 [2, 5] [µM] | plaque reduction ([2]; compound added 1 h postinfection) | IC50 [3] [µM]
CCN(CC)c1cc2c(nc1Cc1ccccc1)C(c1ccc(F)cc1)N(CCNc1ccnc3cc(Cl)ccc13)C2=O (stereo not drawn) [19d, 2-Benzyl-6-(2-((7-chloroquinolin-4-yl)amino)ethyl)-3-(diethylamino)-7-(4-fluorophenyl)-6,7-dihydro-5H-pyrrolo[3,4-b]pyridin-5-one] | > 90 | 6.74 |  |  | 
O=C1c2cc(N3CCOCC3)c(Cc3ccccc3)nc2C(c2ccccc2F)N1CCNc1ccnc2cc(Cl)ccc12 (stereo not drawn) [19e, 2-Benzyl-6-(2-((7-chloroquinolin-4-yl)amino)ethyl)-7-(2-fluorophenyl)-3-morpholino-6,7-dihydro-5H-pyrrolo[3,4-b]pyridin-5-one] |  | 17.1 |  |  | 
O=C1c2cc(N3CCOCC3)c(Cc3ccccc3)nc2C(c2ccccc2F)N1CCCNc1ccnc2cc(Cl)ccc12 (stereo not drawn) [19f, 2-Benzyl-6-(3-((7-chloroquinolin-4-yl)amino)propyl)-7-(2-fluorophenyl)-3-morpholino-6,7-dihydro-5H-pyrrolo[3,4-b]pyridin-5-one] | > 80 | 9.23 |  |  | 
O=C1c2cc(N3CCOCC3)c(Cc3ccccc3)nc2C(c2ccc(C(F)(F)F)cc2)N1CCNc1ccnc2cc(Cl)ccc12 (stereo not drawn) [19g, 2-Benzyl-6-(2-((7-chloroquinolin-4-yl)amino)ethyl)-3-morpholino-7-(4-(trifluoromethyl)phenyl)-6,7-dihydro-5H-pyrrolo[3,4-b]pyridin-5-one] | > 80 | 7.5 | 6.98 |  | 
CCN(CC)c1cc2c(nc1Cc1ccccc1)C(c1ccc(C(F)(F)F)cc1)N(CCNc1ccnc3cc(Cl)ccc13)C2=O (stereo not drawn) [19i, 2-Benzyl-6-(2-((7-chloroquinolin-4-yl)amino)ethyl)-3-(diethylamino)-7-(4-(trifluoromethyl)phenyl)-6,7-dihydro-5H-pyrrolo[3,4-b]pyridin-5-one] | > 90 | 24 | 5.29 | approximately one logarithmic unit | 
O=C1c2cc(N3CCOCC3)c(Cc3ccccc3)nc2C(c2cc(C(F)(F)F)cc(C(F)(F)F)c2)N1CCNc1ccnc2cc(Cl)ccc12 (stereo not drawn) [19j, 2-Benzyl-7-(3,5-bis(trifluoromethyl)phenyl)-6-(2-((7-chloroquinolin-4-yl)amino)ethyl)-3-morpholino-6,7-dihydro-5H-pyrrolo[3,4-b]pyridin-5-one] |  | 15 |  |  | 
O=C1c2cc(N3CCOCC3)c(Cc3ccccc3)nc2C(c2c(F)c(F)c(F)c(F)c2F)N1CCCNc1ccnc2cc(Cl)ccc12 (stereo not drawn) [19l, 2-Benzyl-6-(3-((7-chloroquinolin-4-yl)amino)propyl)-3-morpholino-7-(perfluorophenyl)-6,7-dihydro-5H-pyrrolo[3,4-b]pyridin-5-one] |  | 7.06 |  |  | 
CCN(CC)CCCC(C)Nc1ccnc2cc(Cl)ccc12 (stereo not drawn) [Chloroquine] |  |  |  |  | 8.8
